Source: ChEMBL document CHEMBL1201862, “PubChem BioAssay data set” (2004)
Values belong to the molecule of their own block, whether it stands above or below them. The source made the active and inactive calls.

What was measured:
[1] = target: T1, Phospholipase D1 (Homo sapiens, UniProt Q13393); experiment: cellular phospholipase D1 inhibition IC50 – cell-based, dose response (AID 602151); assay type: functional;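 further: cellular PLD1 assay in Calu-1 cells stimulated with PMA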
T1 sequence (Q13393 whole entry): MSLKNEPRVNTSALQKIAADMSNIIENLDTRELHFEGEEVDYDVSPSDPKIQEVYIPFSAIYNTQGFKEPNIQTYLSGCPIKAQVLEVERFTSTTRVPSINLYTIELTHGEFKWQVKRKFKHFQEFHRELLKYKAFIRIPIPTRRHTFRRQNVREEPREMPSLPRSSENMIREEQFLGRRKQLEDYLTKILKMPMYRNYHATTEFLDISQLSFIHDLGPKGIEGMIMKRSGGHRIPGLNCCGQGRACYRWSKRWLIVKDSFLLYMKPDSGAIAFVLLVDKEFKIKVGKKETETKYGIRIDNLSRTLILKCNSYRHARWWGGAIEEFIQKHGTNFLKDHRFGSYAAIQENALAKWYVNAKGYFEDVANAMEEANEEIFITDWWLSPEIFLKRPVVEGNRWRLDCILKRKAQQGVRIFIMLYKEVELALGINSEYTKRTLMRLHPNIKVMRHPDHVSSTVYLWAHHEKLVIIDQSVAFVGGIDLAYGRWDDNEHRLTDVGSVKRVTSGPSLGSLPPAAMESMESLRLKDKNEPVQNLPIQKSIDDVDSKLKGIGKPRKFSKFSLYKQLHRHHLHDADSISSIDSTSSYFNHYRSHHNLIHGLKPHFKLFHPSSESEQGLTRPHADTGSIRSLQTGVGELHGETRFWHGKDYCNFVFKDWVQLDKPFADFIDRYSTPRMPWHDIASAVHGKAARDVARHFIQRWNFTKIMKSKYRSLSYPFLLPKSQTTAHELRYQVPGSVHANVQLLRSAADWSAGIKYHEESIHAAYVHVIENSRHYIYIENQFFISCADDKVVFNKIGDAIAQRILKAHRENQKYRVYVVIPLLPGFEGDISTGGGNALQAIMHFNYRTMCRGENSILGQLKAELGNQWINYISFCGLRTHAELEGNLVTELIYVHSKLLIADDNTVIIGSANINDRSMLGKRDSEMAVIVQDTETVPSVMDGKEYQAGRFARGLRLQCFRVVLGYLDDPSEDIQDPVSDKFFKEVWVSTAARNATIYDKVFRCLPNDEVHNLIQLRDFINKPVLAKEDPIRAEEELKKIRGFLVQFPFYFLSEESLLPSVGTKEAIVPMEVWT

[2] = target: Phospholipase D2 (Homo sapiens, UniProt O14939); experiment: cellular phospholipase D2 inhibition IC50 – cell-based, dose response (AID 602147); assay type: functional;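 further: cellular assay in HEK293 cells overexpressing GFP-tagged PLD2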
Chain of Phospholipase D2 (O14939 whole entry): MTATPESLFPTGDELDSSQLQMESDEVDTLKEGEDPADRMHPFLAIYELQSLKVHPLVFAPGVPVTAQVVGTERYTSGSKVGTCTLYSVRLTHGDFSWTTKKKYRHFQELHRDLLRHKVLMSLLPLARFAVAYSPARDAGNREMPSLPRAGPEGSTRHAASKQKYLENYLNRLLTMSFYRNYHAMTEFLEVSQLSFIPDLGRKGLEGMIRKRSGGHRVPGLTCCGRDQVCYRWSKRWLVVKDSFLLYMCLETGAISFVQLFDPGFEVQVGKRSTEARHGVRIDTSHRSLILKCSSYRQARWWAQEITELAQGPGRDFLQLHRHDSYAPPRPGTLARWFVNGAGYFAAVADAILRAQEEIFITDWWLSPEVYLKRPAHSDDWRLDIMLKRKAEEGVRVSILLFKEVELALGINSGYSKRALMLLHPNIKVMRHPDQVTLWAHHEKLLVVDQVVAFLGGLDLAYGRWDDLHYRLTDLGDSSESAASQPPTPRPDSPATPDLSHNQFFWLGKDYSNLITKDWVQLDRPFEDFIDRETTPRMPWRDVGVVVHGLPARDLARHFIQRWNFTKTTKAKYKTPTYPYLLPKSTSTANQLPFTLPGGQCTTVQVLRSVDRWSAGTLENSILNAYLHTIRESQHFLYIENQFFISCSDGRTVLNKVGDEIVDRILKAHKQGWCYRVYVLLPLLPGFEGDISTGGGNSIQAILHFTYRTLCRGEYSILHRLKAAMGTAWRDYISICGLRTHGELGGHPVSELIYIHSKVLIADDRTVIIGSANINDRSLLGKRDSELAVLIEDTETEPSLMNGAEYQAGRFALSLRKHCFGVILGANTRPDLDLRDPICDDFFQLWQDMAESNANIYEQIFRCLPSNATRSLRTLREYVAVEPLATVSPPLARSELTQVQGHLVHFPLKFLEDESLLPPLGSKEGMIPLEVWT

[3] = system: HEK293; experiment: EBV LMP1 TES2 canonical NF-kB signalling blockers – cell-based, HEK293, luciferase, cherry-pick, dose response (AID 588343); assay type: functional; conditions: Homo sapiens
[4] = target: Latent membrane protein 1 (Human herpesvirus 4 (strain B95-8), UniProt P03230); experiment: LMP1 TES1 pathway selectivity over dsRED control – imaging, HEK293T, dual-color eGFP/dsRED, cherry-picks, selectivity assay for LMP1 NF-kB inhibitor project, dose response (AID 588398); assay type: functional, cell-based
Chain of Latent membrane protein 1 (P03230 whole entry): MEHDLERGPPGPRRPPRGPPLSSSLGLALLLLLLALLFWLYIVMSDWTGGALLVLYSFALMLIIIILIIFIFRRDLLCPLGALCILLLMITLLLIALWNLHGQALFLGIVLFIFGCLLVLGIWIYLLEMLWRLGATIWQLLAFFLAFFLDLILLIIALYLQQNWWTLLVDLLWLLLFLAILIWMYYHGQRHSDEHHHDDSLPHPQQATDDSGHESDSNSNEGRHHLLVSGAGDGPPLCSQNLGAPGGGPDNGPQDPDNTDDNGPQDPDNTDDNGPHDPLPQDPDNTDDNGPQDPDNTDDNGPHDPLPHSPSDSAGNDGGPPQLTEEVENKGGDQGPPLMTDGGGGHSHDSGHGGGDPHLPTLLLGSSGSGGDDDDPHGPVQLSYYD

[5] = reduction of Shn3 3'UTR-driven luciferase in osteoblasts – cell-based, Clone20 osteoblasts, firefly luciferase, cherry-picked, dose response (AID 624132); assay type: functional;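 further: firefly luciferase luminescence from reporter carrying the Shn3 3'UTR in osteoblasts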
[6] = loss of viability in HepG2 cells – cell-based, CellTiter-Glo, cherry-picked, cytotoxicity control for Shn3 inhibitor project, dose response (AID 624134); assay type: functional
[7] = non-specific 3'UTR reporter inhibition in Clone20-Shn3RL – cell-based, Renilla luciferase, cherry-picked, counter-screen for Shn3 inhibitor project, dose response (AID 624133); assay type: functional
[8] = viability loss in HEK293T cells – cell-based, cherry-picks, cytotoxicity control for HIV Vif inhibitor project, dose response (AID 652208); assay type: functional
[9] = A549 cell cytotoxicity, dose response, cytotoxicity control, plate reader, cherry-pick, antagonist series (AID 743412); assay type: functional, cell-based
[10] = toxicity toward HepG2 liver cells – cell-based, plate reader, cherry-pick, antagonist series, cytotoxicity control, dose response (AID 743416); assay type: functional
[11] = blockers of bursicon-stimulated LGR2 cAMP reporter – cell-based, HEK293, CRE-luciferase reporter, cherry pick, set 2, dose response (AID 743343); assay type: functional;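 further: transfected cells were stimulated with diluted bursicon conditioned medium after compound addition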
[12] = viability loss in HEK293 cells – cell-based, plate reader, cherry-picked samples, cytotoxicity control, dose response (AID 743446); assay type: functional
[13] = target: T2, Sentrin-specific protease 8 (Homo sapiens, UniProt Q96LD8); experiment: inhibition of human SENP8 cleavage activity – biochemical, luminescence, SAR follow-up (AID 504501); assay type: functional
T2 sequence (Q96LD8 whole entry): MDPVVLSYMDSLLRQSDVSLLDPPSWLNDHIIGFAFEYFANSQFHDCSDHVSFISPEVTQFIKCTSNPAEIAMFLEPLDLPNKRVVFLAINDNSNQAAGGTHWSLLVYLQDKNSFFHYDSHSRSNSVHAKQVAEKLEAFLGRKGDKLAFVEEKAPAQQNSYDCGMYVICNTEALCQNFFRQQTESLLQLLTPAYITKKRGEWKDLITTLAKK

[14] = target: T3, Caspase-3 (Homo sapiens, UniProt P42574); experiment: inhibition of recombinant caspase-3 activity – biochemical, luminescence, set 2, selectivity assay for SENP protease inhibitor project, SAR follow-up (AID 588599); assay type: functional
T3 sequence (P42574 whole entry): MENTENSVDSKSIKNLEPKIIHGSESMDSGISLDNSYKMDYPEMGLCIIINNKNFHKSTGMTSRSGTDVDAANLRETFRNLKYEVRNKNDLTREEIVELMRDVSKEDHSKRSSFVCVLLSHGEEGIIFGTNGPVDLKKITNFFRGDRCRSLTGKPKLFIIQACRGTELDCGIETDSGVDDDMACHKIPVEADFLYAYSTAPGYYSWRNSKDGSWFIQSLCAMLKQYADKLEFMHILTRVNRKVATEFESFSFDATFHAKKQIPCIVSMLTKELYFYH

[15] = target: T2, Sentrin-specific protease 8; experiment: inhibition of sentrin protease 8 – biochemical, luminescence, set 2, SAR follow-up (AID 588601); assay type: functional
[16] = target: T3, Caspase-3; experiment: SAR Analysis of small molecule inhibitors of Sentrin-specific proteases (SENPs) using a Caspase-3 Selectivity assay. [Related pubchem assays (depositor defined):AID2540, AID2599, AID434973, AID489001]; assay type: functional
[17] = target: T4, Sentrin-specific protease 6 (Homo sapiens, UniProt Q9GZR1); experiment: SAR Analysis of small molecule inhibitors of Sentrin-specific protease 6 (SENP6) using a Luminescent assay. [Related pubchem assays (depositor defined):AID2582, AID2599]; assay type: functional
T4 sequence (Q9GZR1 whole entry): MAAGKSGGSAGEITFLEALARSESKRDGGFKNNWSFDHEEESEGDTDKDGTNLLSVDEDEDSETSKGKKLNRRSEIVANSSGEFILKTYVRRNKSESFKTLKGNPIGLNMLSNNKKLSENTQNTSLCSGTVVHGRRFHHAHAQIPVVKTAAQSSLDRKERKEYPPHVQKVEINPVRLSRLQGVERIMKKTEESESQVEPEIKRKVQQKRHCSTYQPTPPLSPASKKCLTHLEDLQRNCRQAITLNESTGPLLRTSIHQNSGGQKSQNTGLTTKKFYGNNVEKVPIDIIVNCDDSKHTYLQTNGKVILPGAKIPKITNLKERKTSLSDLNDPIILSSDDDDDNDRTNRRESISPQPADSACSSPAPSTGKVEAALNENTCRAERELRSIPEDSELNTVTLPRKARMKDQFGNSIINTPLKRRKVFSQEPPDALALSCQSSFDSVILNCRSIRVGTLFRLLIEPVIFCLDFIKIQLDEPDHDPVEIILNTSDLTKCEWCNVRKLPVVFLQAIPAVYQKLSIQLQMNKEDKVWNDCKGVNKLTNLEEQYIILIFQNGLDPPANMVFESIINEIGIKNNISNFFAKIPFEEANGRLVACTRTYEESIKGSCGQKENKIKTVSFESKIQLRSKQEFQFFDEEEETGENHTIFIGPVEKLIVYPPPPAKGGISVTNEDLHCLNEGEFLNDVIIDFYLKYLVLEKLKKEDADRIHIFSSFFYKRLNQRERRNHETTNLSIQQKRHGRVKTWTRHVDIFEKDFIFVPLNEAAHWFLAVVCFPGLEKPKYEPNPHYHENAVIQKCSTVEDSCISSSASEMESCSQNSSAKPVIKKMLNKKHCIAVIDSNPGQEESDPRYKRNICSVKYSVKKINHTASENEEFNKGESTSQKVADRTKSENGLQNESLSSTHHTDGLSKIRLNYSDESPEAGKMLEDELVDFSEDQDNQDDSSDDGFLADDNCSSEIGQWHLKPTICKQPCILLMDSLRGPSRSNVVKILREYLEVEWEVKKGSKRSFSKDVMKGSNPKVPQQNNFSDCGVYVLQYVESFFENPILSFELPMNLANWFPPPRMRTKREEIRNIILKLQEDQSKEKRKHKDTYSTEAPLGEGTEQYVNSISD

[18] = target: T4, Sentrin-specific protease 6; experiment: inhibition of human SENP6 catalytic domain – biochemical, luminescence, set 2, SAR follow-up (AID 588598); assay type: functional
[19] = target: T5, Sentrin-specific protease 7 (Homo sapiens, UniProt Q9BQF6); experiment: inhibition of human SENP7 cleavage activity – biochemical, luminescence, SAR follow-up (AID 504497); assay type: functional
T5 sequence (Q9BQF6 whole entry): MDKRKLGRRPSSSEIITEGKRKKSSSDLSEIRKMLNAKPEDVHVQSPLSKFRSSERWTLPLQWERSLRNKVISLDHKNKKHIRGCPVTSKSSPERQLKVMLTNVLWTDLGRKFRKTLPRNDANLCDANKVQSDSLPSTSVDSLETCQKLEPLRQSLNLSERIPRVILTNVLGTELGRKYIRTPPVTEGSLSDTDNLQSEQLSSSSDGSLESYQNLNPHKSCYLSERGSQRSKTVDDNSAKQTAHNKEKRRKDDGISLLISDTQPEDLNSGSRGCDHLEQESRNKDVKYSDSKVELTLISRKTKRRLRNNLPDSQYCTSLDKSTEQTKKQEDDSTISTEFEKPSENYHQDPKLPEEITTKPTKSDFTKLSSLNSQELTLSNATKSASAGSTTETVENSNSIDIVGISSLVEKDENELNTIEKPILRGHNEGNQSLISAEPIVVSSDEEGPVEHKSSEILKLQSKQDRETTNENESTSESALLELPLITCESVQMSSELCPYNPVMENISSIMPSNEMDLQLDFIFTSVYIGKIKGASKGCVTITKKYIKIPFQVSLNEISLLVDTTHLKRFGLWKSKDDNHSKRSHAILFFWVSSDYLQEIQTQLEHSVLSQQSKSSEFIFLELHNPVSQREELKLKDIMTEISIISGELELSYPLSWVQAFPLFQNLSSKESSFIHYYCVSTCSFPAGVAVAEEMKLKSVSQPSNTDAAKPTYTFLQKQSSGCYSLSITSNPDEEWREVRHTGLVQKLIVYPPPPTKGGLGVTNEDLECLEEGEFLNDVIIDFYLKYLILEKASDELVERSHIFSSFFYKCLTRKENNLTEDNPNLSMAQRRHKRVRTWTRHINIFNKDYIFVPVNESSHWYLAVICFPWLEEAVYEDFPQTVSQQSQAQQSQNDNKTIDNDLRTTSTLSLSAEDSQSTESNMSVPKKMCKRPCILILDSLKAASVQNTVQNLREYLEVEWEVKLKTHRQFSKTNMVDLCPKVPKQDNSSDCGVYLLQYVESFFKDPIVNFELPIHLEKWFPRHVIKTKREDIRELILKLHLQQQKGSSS

Compound: O=C(NCCN1CCC2(CC1)C(=O)NCN2c1ccccc1)c1cccc(F)n1
IC50 [1]: 12 µM (active)
IC50 [2]: 4.46 µM (active)

Compound: CC(C)OC(=O)c1ccc(NCc2cc(O)ccc2O)cc1Cl
AC50 [3]: 10.9 µM (active)
AC50 [4]: 9.48 µM (active)
AC50 [5]: 2.15 µM (active)
AC50 [6]: 33.5 µM (active)
AC50 [7]: 4.45 µM (active)
AC50 [8]: 6.42 µM (active)
AC50 [9]: 17 µM (active)
AC50 [10]: 23.6 µM (active)
AC50 [11]: 49.2 µM (active)
AC50 [12]: 4.76 µM (active)

IC50 [14]: 1.16 µM (active)
IC50 [16]: 1.3 µM (active)
IC50 [17]: 1.9 µM (active)
IC50 [18]: 1.45 µM (active)
IC50 [19]: 1.7 µM (active)
Compound: CN(C)c1ccc(/C=C/c2noc(-c3ccccc3O)n2)cc1
IC50 [13]: 2.1 µM (active)
IC50 [15]: 1.42 µM (active)

Compound: C[C@@H](CN1CCC(n2c(=O)[nH]c3ccccc32)CC1)NC(=O)c1ccc(Cl)c(Cl)c1
IC50 [1]: 0.023 µM (active)
IC50 [2]: 0.428 µM (active)

AC50 [4]: 29.5 µM (active)
Compound: COc1ccc(C)cc1S(=O)(=O)N(CC(=O)Nc1cc([N+](=O)[O-])ccc1C)c1ccc(C)c(C)c1
